Assay results reported in PubChem BioAssay AID2060908 (Molecular Pharmacology Branch, DTP, NCI, 2025).

System: 186277-243-T-J2-PDC complex spheroids, viability
Assay: Anticancer human tumor 186277-243-T-J2-PDC patient-derived colon adenocarcinoma cell line growth inhibition [RAS]
Details: for IC50: curve of first compound; for viability, T/C: stronger effect = lower value
Method in brief: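 Tumour cells grown as complex spheroids with HUVEC endothelial cells and mesenchymal stem cells, treated with RAS pathway inhibitor combinations. Each agent spans half-log steps from near clinical Cmax, or 10 microM where Cmax is unknown.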

[1] = second compound 0.000949 µM, first compound 0.0316 µM
[2] = second compound 0.000949 µM, first compound 0.1 µM
[3] = second compound 0.000949 µM, first compound 0.316 µM
[4] = second compound 0.000949 µM, first compound 1 µM
[5] = second compound 0.000949 µM, first compound 3.16 µM
[6] = second compound 0.000949 µM, first compound 10 µM
[7] = second compound 0.003 µM, first compound 0.0316 µM
[8] = second compound 0.003 µM, first compound 0.1 µM
[9] = second compound 0.003 µM, first compound 0.316 µM
[10] = second compound 0.003 µM, first compound 1 µM
[11] = second compound 0.003 µM, first compound 3.16 µM
[12] = second compound 0.003 µM, first compound 10 µM
[13] = second compound 0.00949 µM, first compound 0.0316 µM
[14] = second compound 0.00949 µM, first compound 0.1 µM
[15] = second compound 0.00949 µM, first compound 0.316 µM
[16] = second compound 0.00949 µM, first compound 1 µM
[17] = second compound 0.00949 µM, first compound 3.16 µM
[18] = second compound 0.00949 µM, first compound 10 µM
[19] = second compound 0.03 µM, first compound 0.0316 µM
[20] = second compound 0.03 µM, first compound 0.1 µM
[21] = second compound 0.03 µM, first compound 0.316 µM
[22] = second compound 0.03 µM, first compound 1 µM
[23] = second compound 0.03 µM, first compound 3.16 µM
[24] = second compound 0.03 µM, first compound 10 µM
[25] = second compound 0.0949 µM, first compound 0.0316 µM
[26] = second compound 0.0949 µM, first compound 0.1 µM
[27] = second compound 0.0949 µM, first compound 0.316 µM
[28] = second compound 0.0949 µM, first compound 1 µM
[29] = second compound 0.0949 µM, first compound 3.16 µM
[30] = second compound 0.0949 µM, first compound 10 µM
[31] = second compound 0.3 µM, first compound 0.0316 µM
[32] = second compound 0.3 µM, first compound 0.1 µM
[33] = second compound 0.3 µM, first compound 0.316 µM
[34] = second compound 0.3 µM, first compound 1 µM
[35] = second compound 0.3 µM, first compound 3.16 µM
[36] = second compound 0.3 µM, first compound 10 µM
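Further: spheroids exposed to compounds for 7 days before viability read.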

## CC(C)NCC(C(=O)N1CCN(c2ncnc3c2C(C)CC3O)CC1)c1ccc(Cl)cc1 (stereo unspecified) + CCn1c(-c2cccnc2C(C)OC)c2c3cc(ccc31)N1CCOC(CC(NC(=O)C(C(C)C)N(C)C(=O)C3(F)CCN(C(=O)C#CC(C)(C)N(C)C)CC3)C(=O)N3CCCC(N3)C(=O)OCC(C)(C)C2)C1
Second compound 0.000949 µM
  IC50: 1900 nM
Second compound 0.003 µM
  IC50: 1870 nM
Second compound 0.00949 µM
  IC50: 2290 nM
Second compound 0.03 µM
  IC50: 1380 nM
Second compound 0.0949 µM
  IC50: 726 nM
Second compound 0.3 µM
  IC50: 349 nM
[1]
  viability, T/C: 88.1%
[2]
  viability, T/C: 96.7%
[3]
  viability, T/C: 108%
[4]
  viability, T/C: 69%
[5]
  viability, T/C: 40.5%
[6]
  viability, T/C: 29.4%
[7]
  viability, T/C: 83.4%
[8]
  viability, T/C: 83.4%
[9]
  viability, T/C: 88.2%
[10]
  viability, T/C: 62.8%
[11]
  viability, T/C: 39.9%
[12]
  viability, T/C: 29.4%
[13]
  viability, T/C: 90.2%
[14]
  viability, T/C: 82.8%
[15]
  viability, T/C: 89.2%
[16]
  viability, T/C: 67%
[17]
  viability, T/C: 43.9%
[18]
  viability, T/C: 28%
[19]
  viability, T/C: 104%
[20]
  viability, T/C: 95.8%
[21]
  viability, T/C: 108%
[22]
  viability, T/C: 57.3%
[23]
  viability, T/C: 36.6%
[24]
  viability, T/C: 25.3%
[25]
  viability, T/C: 99%
[26]
  viability, T/C: 106%
[27]
  viability, T/C: 72%
[28]
  viability, T/C: 40.6%
[29]
  viability, T/C: 34.7%
[30]
  viability, T/C: 18.7%
[31]
  viability, T/C: 99.2%
[32]
  viability, T/C: 83.3%
[33]
  viability, T/C: 51.8%
[34]
  viability, T/C: 27.9%
[35]
  viability, T/C: 20.4%
[36]
  viability, T/C: 15.8%

## CC(C)n1nc(-c2ccc3oc(N)nc3c2)c2c(N)ncnc21 + CCn1c(-c2cccnc2C(C)OC)c2c3cc(ccc31)N1CCOC(CC(NC(=O)C(C(C)C)N(C)C(=O)C3(F)CCN(C(=O)C#CC(C)(C)N(C)C)CC3)C(=O)N3CCCC(N3)C(=O)OCC(C)(C)C2)C1
Second compound 0.000949 µM
  IC50: 60.3 nM
Second compound 0.003 µM
  IC50: 76 nM
Second compound 0.00949 µM
  IC50: 59 nM
Second compound 0.03 µM
  IC50: 56.9 nM
Second compound 0.0949 µM
  IC50: 41.2 nM
Second compound 0.3 µM
  IC50: 24.9 nM
Second compound 0.000949 µM, first compound 0.000316 µM
  viability, T/C: 115%
Second compound 0.000949 µM, first compound 0.001 µM
  viability, T/C: 98.1%
Second compound 0.000949 µM, first compound 0.00316 µM
  viability, T/C: 98.5%
Second compound 0.000949 µM, first compound 0.01 µM
  viability, T/C: 100%
[1]
  viability, T/C: 70.6%
[2]
  viability, T/C: 33.7%
Second compound 0.003 µM, first compound 0.000316 µM
  viability, T/C: 88%
Second compound 0.003 µM, first compound 0.001 µM
  viability, T/C: 99%
Second compound 0.003 µM, first compound 0.00316 µM
  viability, T/C: 97.1%
Second compound 0.003 µM, first compound 0.01 µM
  viability, T/C: 92.2%
[7]
  viability, T/C: 79.6%
[8]
  viability, T/C: 40.5%
Second compound 0.00949 µM, first compound 0.000316 µM
  viability, T/C: 90.1%
Second compound 0.00949 µM, first compound 0.001 µM
  viability, T/C: 115%
Second compound 0.00949 µM, first compound 0.00316 µM
  viability, T/C: 93%
Second compound 0.00949 µM, first compound 0.01 µM
  viability, T/C: 94.1%
[13]
  viability, T/C: 69.3%
[14]
  viability, T/C: 33.6%
Second compound 0.03 µM, first compound 0.000316 µM
  viability, T/C: 106%
Second compound 0.03 µM, first compound 0.001 µM
  viability, T/C: 107%
Second compound 0.03 µM, first compound 0.00316 µM
  viability, T/C: 92.7%
Second compound 0.03 µM, first compound 0.01 µM
  viability, T/C: 90.2%
[19]
  viability, T/C: 70.3%
[20]
  viability, T/C: 31.2%
Second compound 0.0949 µM, first compound 0.000316 µM
  viability, T/C: 103%
Second compound 0.0949 µM, first compound 0.001 µM
  viability, T/C: 98.4%
Second compound 0.0949 µM, first compound 0.00316 µM
  viability, T/C: 105%
Second compound 0.0949 µM, first compound 0.01 µM
  viability, T/C: 95.4%
[25]
  viability, T/C: 55.8%
[26]
  viability, T/C: 31%
Second compound 0.3 µM, first compound 0.000316 µM
  viability, T/C: 101%
Second compound 0.3 µM, first compound 0.001 µM
  viability, T/C: 100%
Second compound 0.3 µM, first compound 0.00316 µM
  viability, T/C: 91.7%
Second compound 0.3 µM, first compound 0.01 µM
  viability, T/C: 72.5%
[31]
  viability, T/C: 44.3%
[32]
  viability, T/C: 21.3%

## CC(Nc1ccc2c(c1)OCCn1cc(N3C(=O)OCC3C(F)F)nc1-2)C(N)=O (stereo unspecified) + CCn1c(-c2cccnc2C(C)OC)c2c3cc(ccc31)N1CCOC(CC(NC(=O)C(C(C)C)N(C)C(=O)C3(F)CCN(C(=O)C#CC(C)(C)N(C)C)CC3)C(=O)N3CCCC(N3)C(=O)OCC(C)(C)C2)C1
Second compound 0.000949 µM
  IC50: 5910 nM
Second compound 0.003 µM
  IC50: 5850 nM
Second compound 0.00949 µM
  IC50: 5630 nM
Second compound 0.03 µM
  IC50: 5690 nM
Second compound 0.0949 µM
  IC50: 2560 nM
Second compound 0.3 µM
  IC50: 317 nM
[1]
  viability, T/C: 108%
[2]
  viability, T/C: 97.7%
[3]
  viability, T/C: 70.5%
[4]
  viability, T/C: 49.3%
[5]
  viability, T/C: 96.2%
[6]
  viability, T/C: 21.1%
[7]
  viability, T/C: 95.1%
[8]
  viability, T/C: 90.1%
[9]
  viability, T/C: 66.2%
[10]
  viability, T/C: 55.3%
[11]
  viability, T/C: 105%
[12]
  viability, T/C: 21.8%
[13]
  viability, T/C: 78.8%
[14]
  viability, T/C: 94%
[15]
  viability, T/C: 74.3%
[16]
  viability, T/C: 52.1%
[17]
  viability, T/C: 102%
[18]
  viability, T/C: 19.8%
[19]
  viability, T/C: 105%
[20]
  viability, T/C: 91.7%
[21]
  viability, T/C: 65.3%
[22]
  viability, T/C: 48%
[23]
  viability, T/C: 108%
[24]
  viability, T/C: 17.6%
[25]
  viability, T/C: 102%
[26]
  viability, T/C: 91.9%
[27]
  viability, T/C: 59.2%
[28]
  viability, T/C: 38.5%
[29]
  viability, T/C: 97.8%
[30]
  viability, T/C: 12.3%
[31]
  viability, T/C: 96.1%
[32]
  viability, T/C: 66.4%
[33]
  viability, T/C: 47.1%
[34]
  viability, T/C: 25.4%
[35]
  viability, T/C: 86.4%
[36]
  viability, T/C: 7.8%
